In test [1] the test system is Escherichia coli. As to the kind of experiment: Antibacterial activity against Escherichia coli assessed as minimal inhibitory concentration incubated for 24 hrs. It is filed as functional.
The subject of the next test is Salmonella enterica. In words: Antibacterial activity against Salmonella enterica assessed as minimal inhibitory concentration incubated for 24 hrs. It is filed as functional.
Test [2] relates to Staphylococcus aureus. In words: Antibacterial activity against Staphylococcus aureus assessed as minimal inhibitory concentration incubated for 24 hrs. It is filed as functional.
Test [3] deals with Bacillus subtilis. In words: Antibacterial activity against Bacillus subtilis assessed as minimal inhibitory concentration incubated for 72 hrs. It is filed as functional.
In test [4] the test system is Staphylococcus aureus. As to the kind of experiment: Antibacterial activity against Staphylococcus aureus MRSA assessed as minimal inhibitory concentration incubated for 24 hrs. It is filed as functional.
In test [5] the test system is Escherichia coli. In words: Antimicrobial activity against Escherichia coli KCTC 1682 assessed as minimal inhibitory concentration incubated for 18 hrs. It is filed as functional.
In the next test the test system is Pseudomonas aeruginosa. As to the kind of experiment: Antimicrobial activity against Pseudomonas aeruginosa KCTC 1637 assessed as minimal inhibitory concentration incubated for 18 hrs. It is filed as functional.
Test [6] deals with Staphylococcus aureus. In words: Antimicrobial activity against Staphylococcus aureus KCTC 1621 assessed as minimal inhibitory concentration incubated for 18 hrs. It is filed as functional.
Test [7] relates to Staphylococcus epidermidis. As to the kind of experiment: Antimicrobial activity against Staphylococcus epidermidis KCTC 1917 assessed as minimal inhibitory concentration incubated for 18 hrs. It is filed as functional.
The subject of test [8] is Escherichia coli. As to the kind of experiment: Antibacterial activity against Escherichia coli BW25113 assessed as minimal inhibitory concentration by microdilution assay. It is filed as functional. In general terms: In broth dilution the organism is exposed to a series of concentrations in liquid medium.
The subject of the next test is Salmonella typhimurium. As to the kind of experiment: Antibacterial activity against Salmonella typhimurium TA100 assessed as minimal inhibitory concentration by microdilution assay. It is filed as functional, Salmonella enterica subsp. enterica serovar Typhimurium. To be noted: Salmonella enterica.
Test [9] relates to Bacillus subtilis. As to the kind of experiment: Antibacterial activity against Bacillus subtilis DSM10 assessed as minimal inhibitory concentration by microdilution assay. It is filed as functional.
Another test concerns Mycolicibacterium phlei. In words: Antibacterial activity against Mycobacterium phlei DSM750 assessed as minimal inhibitory concentration by microdilution assay. It is filed as functional.
For test [10], the system named is Middle East respiratory syndrome-related coronavirus. As to the kind of experiment: microbe, parasite or virus in culture.
The test system of a further test is SARS-CoV. In words: microbe, parasite or virus in culture. To be noted: Severe acute respiratory syndrome-related coronavirus.
In a further test the test system is SARS-CoV-2. As to the kind of experiment: microbe, parasite or virus in culture. Particulars: Severe acute respiratory syndrome coronavirus 2.
The test system of another test is Murine hepatitis virus. As to the kind of experiment: microbe, parasite or virus in culture. To be noted: Murine coronavirus.
The test system of test [11] is Feline infectious peritonitis virus. As to the kind of experiment: microbe, parasite or virus in culture. Particulars: Alphacoronavirus 1.

Our source for the MIC, IC50 and EC50 values is ChEMBL document CHEMBL5120880, “Peptidomimetics: An Overview of Recent Medicinal Chemistry Efforts toward the Discovery of Novel Small Molecule Inhibitors” (J Med Chem, 2022).

In brackets after ≈: the same amount, converted by molar mass. Peptide text beside a SMILES is read from it. Bounds are passed on as bounds.

Broadly, the MIC is the least concentration at which growth counts as inhibited. Turning to `C#Cc1cccc(NC(=O)[C@@H](N)CC(C)C)c1`, the MIC was determined as 10.6 µg/mL (≈ 46 µM) with Escherichia coli [1]; 15.6 µg/mL (≈ 67.7 µM) in the test on Salmonella enterica; 10.6 µg/mL (≈ 46 µM) with Staphylococcus aureus [2]; 31.2 µg/mL (≈ 135 µM) in the test with Bacillus subtilis [3]; 31.2 µg/mL (≈ 135 µM) with Staphylococcus aureus [4].

On to `CC(=O)NCCNc1nc(NCC(N)=O)nc(N(Cc2ccccc2)Cc2ccccc2)n1`, for which the minimum inhibitory concentration (MIC) (in the test with Escherichia coli [5]; in the test with Pseudomonas aeruginosa; in the test with Staphylococcus aureus [6]; in test [7]) was above 128 µg/mL throughout.

Turning to `CCCCCCCCCCCCNC(=O)[C@@H](N)c1ccccc1`, the minimum inhibitory concentration (MIC) was found to be 2.5 µg/mL (≈ 7.85 µM) in the test with Escherichia coli [1]; 3.9 µg/mL (≈ 12.2 µM) with Salmonella enterica; 7.8 µg/mL (≈ 24.5 µM) with Staphylococcus aureus [2]; 15.6 µg/mL (≈ 49 µM) in the test with Bacillus subtilis [3]; 15.6 µg/mL (≈ 49 µM) in the test on Staphylococcus aureus [4].

Consider `CCCCCCCCCCCCNC(=O)[C@@H](N)CC(C)C`, for which the minimal inhibitory concentration (MIC) with Escherichia coli [1] was found to be 2.5 µg/mL (≈ 8.37 µM); in the test on Salmonella enterica, 4.17 µg/mL (≈ 14 µM); in the test on Staphylococcus aureus [2], 3.3 µg/mL (≈ 11.1 µM); with Bacillus subtilis [3], 10 µg/mL (≈ 33.5 µM); in the test with Staphylococcus aureus [4], 6.25 µg/mL (≈ 20.9 µM).

For `CCCCCCNC(=O)[C@@H](N)Cc1ccccc1`, the MIC in the test with Escherichia coli [1] came out at 156 µg/mL (≈ 628 µM); in the test on Salmonella enterica it was 156 µg/mL (≈ 628 µM); in the test on Staphylococcus aureus [2] it was 624 µg/mL (≈ 2510 µM); in the test on Bacillus subtilis [3] it was 156 µg/mL (≈ 628 µM); with Staphylococcus aureus [4], 312 µg/mL (≈ 1260 µM).

As to `COc1c(CCc2ccc(NC(=O)[C@H](CC#N)NC(=O)c3ccc(NC(=O)/C(C)=C/c4ccc(O)cc4)cc3)cc2)ccc(C(=O)Nc2ccc(C(=O)O)c(O)c2OC)c1O`, the MIC in the test with Escherichia coli [8] turned out to be 0.25 µg/mL (≈ 0.302 µM); in the test with Salmonella typhimurium it was 0.25 µg/mL (≈ 0.302 µM); in the test with Bacillus subtilis [9], 0.063 µg/mL (≈ 0.0761 µM); with Mycolicibacterium phlei it was 1 µg/mL (≈ 1.21 µM).

As usually defined, the IC50 is the concentration at which inhibition is half-maximal. For orientation: EC50 means the concentration needed to bring the measured effect to its halfway point. A higher EC50 goes with a need for much substance. With `CC(C)C[C@H](NC(=O)OC1CCCCC1)C(=O)N[C@H](C=O)C[C@H]1CCNC1=O`, the results for the half-inhibitory concentration (IC50) (in test [10]; with SARS-CoV; in the test on SARS-CoV-2) were 350 nM, 3900 nM and 3700 nM, respectively. In addition, the values for the concentration for a half-maximal effect (EC50) (in the test on Murine hepatitis virus; in test [11]) were 120 nM and 90 nM, respectively.

With `COc1c(C#Cc2ccc(NC(=O)[C@H](CC#N)NC(=O)c3ccc(NC(=O)/C(C)=C/c4ccc(O)cc4)cc3)cc2)ccc(C(=O)Nc2ccc(C(=O)O)c(O)c2OC)c1O`, the MIC is below 0.063 µg/mL with Escherichia coli [8], at most 0.016 µg/mL in the test on Salmonella typhimurium, 0.063 µg/mL (≈ 0.0765 µM) in the test on Bacillus subtilis [9] and 0.5 µg/mL (≈ 0.607 µM) in the test on Mycolicibacterium phlei.

Regarding `CCCCCCCCCCCCNC(=O)[C@@H](N)Cc1ccccc1`, the MIC in the test on Escherichia coli [1] was found to be 5 µg/mL (≈ 15 µM); in the test with Salmonella enterica, 5 µg/mL (≈ 15 µM); in the test on Staphylococcus aureus [2], 2.5 µg/mL (≈ 7.52 µM); with Bacillus subtilis [3], 10 µg/mL (≈ 30.1 µM); in the test on Staphylococcus aureus [4] it was 16.6 µg/mL (≈ 49.9 µM).

As to `C#Cc1cccc(NC(=O)[C@@H](N)C(C)CC)c1` (stereo not given in full), the MIC in the test with Escherichia coli [1] came to 15.6 µg/mL (≈ 67.7 µM); in the test with Salmonella enterica, 15.6 µg/mL (≈ 67.7 µM); in the test on Staphylococcus aureus [2], 31.2 µg/mL (≈ 135 µM); in the test with Staphylococcus aureus [4] it was 62.4 µg/mL (≈ 271 µM).

Consider `CCCCNC(=O)[C@@H](N)Cc1ccccc1`, for which the MIC in the test with Salmonella enterica was 416 µg/mL (≈ 1890 µM); with Staphylococcus aureus [2], 1250 µg/mL (≈ 5670 µM); with Bacillus subtilis [3], 416 µg/mL (≈ 1890 µM); in the test on Staphylococcus aureus [4], 624 µg/mL (≈ 2830 µM).

On to `COc1c(NC(=O)c2ccc(NC(=O)c3ccc(NC(=O)[C@H](Cc4nn[nH]n4)NC(=O)c4ccc(NC(=O)/C(C)=C/c5ccc(O)cc5)cc4)cc3)c(OC)c2O)ccc(C(=O)O)c1O`, for which the minimum inhibitory concentration (MIC) in the test on Escherichia coli [8] was determined as 0.063 µg/mL (≈ 0.0711 µM); with Salmonella typhimurium, 0.063 µg/mL (≈ 0.0711 µM); in the test on Bacillus subtilis [9], 0.25 µg/mL (≈ 0.282 µM); in the test with Mycolicibacterium phlei, 2 µg/mL (≈ 2.26 µM).

Consider `CC(=O)N[C@@H](CCCCN)C(=O)N[C@@H](Cc1c[nH]c2ccccc12)C(=O)N[C@@H](CCCCN)C(=O)N[C@@H](Cc1c[nH]c2ccccc12)C(N)=O` (Ac-KWKW-NH2), for which the MIC (in the test with Escherichia coli [5]; with Pseudomonas aeruginosa; in the test with Staphylococcus aureus [6]; in [7]) was above 128 µg/mL throughout.

`CC(=O)N[C@@H](CCCCN)C(=O)N[C@@H](Cc1c[nH]c2ccccc12)C(=O)N[C@@H](CCCCN)C(N)=O` (Ac-Lys-Trp-Lys-NH2): the minimum inhibitory concentration (MIC) in the test with Escherichia coli [5] was 64 µg/mL (≈ 128 µM); in the test with Pseudomonas aeruginosa, 128 µg/mL (≈ 255 µM); in the test on Staphylococcus aureus [6] it was above 128 µg/mL; in test [7], above 128 µg/mL.

In the case of `CC(=O)N[C@@H](CCCCN)C(=O)N[C@@H](Cc1c[nH]c2ccccc12)C(N)=O` (Ac-Lys-Trp-NH2), the minimum inhibitory concentration (MIC) in the test with Escherichia coli [5] is 128 µg/mL (≈ 343 µM); with Pseudomonas aeruginosa it was 128 µg/mL (≈ 343 µM); in the test on Staphylococcus aureus [6], above 128 µg/mL; in test [7], above 128 µg/mL.

Consider `CC(=O)N[C@@H](Cc1c[nH]c2ccccc12)C(=O)N[C@@H](CCCCN)C(=O)N[C@@H](Cc1c[nH]c2ccccc12)C(N)=O` (Ac-Trp-Lys-Trp-NH2), for which the MIC (in the test with Escherichia coli [5]; with Pseudomonas aeruginosa; in the test on Staphylococcus aureus [6]; in test [7]) was above 128 µg/mL in each case.
